{"source": "patent US11312705B2", "about": "“Heteroaryl[4,3-C]pyrimidine-5-amine derivative, preparation method therefor, and medical uses thereof” (Jiangsu Hengrui Medicine Co., Ltd., priority 2017, dated 2022)", "format_in_all_cases": "cell-based", "key": {"[1]": {"biological_target": "adenosine A2a receptor (A2aR) (Homo sapiens (Human), UniProt P29274)", "sequence (P29274 whole entry)": "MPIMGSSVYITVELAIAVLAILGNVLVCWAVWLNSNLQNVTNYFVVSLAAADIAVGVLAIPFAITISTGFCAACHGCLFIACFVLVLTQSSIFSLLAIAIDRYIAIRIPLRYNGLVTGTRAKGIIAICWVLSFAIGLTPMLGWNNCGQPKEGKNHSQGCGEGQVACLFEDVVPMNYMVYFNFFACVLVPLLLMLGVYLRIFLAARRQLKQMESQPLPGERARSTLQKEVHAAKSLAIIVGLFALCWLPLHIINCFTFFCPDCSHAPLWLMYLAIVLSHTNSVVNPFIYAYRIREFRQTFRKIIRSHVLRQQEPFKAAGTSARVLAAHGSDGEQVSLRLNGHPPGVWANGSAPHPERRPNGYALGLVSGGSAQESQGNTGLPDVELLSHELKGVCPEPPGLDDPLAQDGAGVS", "test": "Inhibition of adenosine A2a receptor cAMP signaling pathway (HTRF cAMP, CHO-K1/A2aR cells)", "source_text": "(§1) Test Example 1. Determination of the inhibition activity of the compounds of the present invention on the adenosine A2a receptor (A2aR) cAMP signaling pathway, the adenosine A2b receptor (A2bR) cAMP signaling pathway, the adenosine A1 receptor (A1R) cAMP signaling pathway and the adenosine A3 receptor (A3R) cAMP signaling pathway.\n(§2) The inhibition activity of the compounds of the present invention on the adenosine A2a receptor cAMP signaling pathway, the adenosine A2b receptor cAMP signaling pathway, the adenosine A1 receptor cAMP signaling pathway and the adenosine A3 receptor cAMP signaling pathway was determined by the following method. The experimental method is briefly described as follows:\n2.1 Adenosine A2a Receptor\nCHO-K1/A2aR cells were cultured in DMEM/F12 medium containing 10% fetal bovine serum and 800 μg/ml bleomycin. The cells were digested with the cell separation buffer during the experiment. The cells were resuspended in the balanced salt buffer containing 20 mM HEPES and 0.1% bovine serum albumin and counted, and the cell density was adjusted to 10^6 cells/ml. In the 384-well plate, each well was added with 5 μl of cell suspension, and 2.5 μl of test compound (4× concentration) formulated with the balanced salt buffer containing 20 mM HEPES, 0.1% bovine serum albumin, 54 μM rolipram and 2.7 U/ml adenosine deaminase, and the plate was incubated at room temperature for 30 minutes. Each well was then added with 2.5 μl of […] (4× concentration) formulated with the balanced salt buffer containing 20 mM HEPES, 0.1% bovine serum albumin, 54 μM rolipram and 2.7 U/ml adenosine deaminase, and the plate was incubated at room temperature for 30 minutes. The final concentrations of the compounds were: 10000, 2000, 400, 80, 16, 3.2, 0.64, 0.128, 0.0256, 0.00512, and 0.001024 nM. The final concentration of […] was 20 nM. Intracellular cAMP concentration was detected with the cAMP dynamic 2 kit. cAMP-d2 and Anti-cAMP-Eu-Cryptate were diluted respectively with the cAMP lysis buffer at a ratio of 1:4. Each well was added with 5 μl of diluted cAMP-d2, followed by addition of 5 μl of diluted Anti-cAMP-Eu-Cryptate, and the plate was incubated at room temperature in the dark for 1 hour. The HTRF signal values were read by the PHERAstar multi-function microplate reader."}, "[2]": {"biological_target": "adenosine A1 receptor (A1R) (Homo sapiens (Human), UniProt P30542)", "sequence (P30542 whole entry)": "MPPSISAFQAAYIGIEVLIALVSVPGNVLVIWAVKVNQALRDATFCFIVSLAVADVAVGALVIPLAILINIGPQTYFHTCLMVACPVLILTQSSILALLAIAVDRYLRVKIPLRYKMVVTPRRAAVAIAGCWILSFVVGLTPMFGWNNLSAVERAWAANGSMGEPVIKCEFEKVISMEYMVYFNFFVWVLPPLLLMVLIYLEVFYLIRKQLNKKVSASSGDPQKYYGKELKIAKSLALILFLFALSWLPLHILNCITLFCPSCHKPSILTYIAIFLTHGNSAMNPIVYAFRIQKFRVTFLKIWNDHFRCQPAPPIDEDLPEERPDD", "test": "Inhibition of adenosine A1 receptor cAMP signaling pathway (HTRF cAMP, CHO-K1/A1R cells)", "details": "Table 2; for IC50: CHO-K1/A1R cells, forskolin 10 μM, CPA 10 nM, cAMP HTRF; for IC50 ratio (A1R/A2aR): selectivity A1R over A2aR", "source_text": "as §1, §2\n2.2 Adenosine A1 receptor\n(§3) CHO-K1/A1R cells were cultured in DMEM/F12 medium containing 10% fetal bovine serum and 1 mg/ml G418. The cells were digested with the cell separation buffer during the experiment. The cells were then resuspended in the balanced salt buffer containing 20 mM HEPES and 0.1% bovine serum albumin and counted, and the cell density was adjusted to 5×10^5 cells/ml. In the 384-well plate, each well was added with 12.5 μl of cell suspension, and 6.25 μl of test compound (4× concentration) formulated with the balanced salt buffer containing 20 mM HEPES, 0.1% bovine serum albumin, 54 μM rolipram and 2.7 U/ml adenosine deaminase, and the plate was incubated at room temperature for 30 minutes. Each well was then added with 6.25 μl of forskolin and N6-cyclopentyladenosine (4× concentration) formulated with the balanced salt buffer containing 20 mM HEPES, 0.1% bovine serum albumin, 54 μM rolipram and 2.7 U/ml adenosine deaminase, and the plate was incubated at room temperature for 30 minutes. The final concentrations of the compounds were: 100000, 10000, 1000, 100, 10, 1, 0.1 and 0 nM. The final concentration of forskolin was 10 μM. The final concentration of CPA was 10 nM. Intracellular cAMP concentration was detected with the cAMP dynamic 2 kit. cAMP-d2 and Anti-cAMP-Eu-Cryptate were diluted respectively with the cAMP lysis buffer at a ratio of 1:4. Each well was added with 12.5 μl of diluted cAMP-d2, followed by addition of 12.5 μl of diluted Anti-cAMP-Eu-Cryptate, and the plate was incubated at room temperature in the dark for 1 hour. The HTRF signal values were read by the PHERAstar multi-function microplate reader."}, "[3]": {"biological_target": "adenosine A3 receptor (A3R) (Homo sapiens (Human), UniProt P0DMS8)", "sequence (P0DMS8 whole entry)": "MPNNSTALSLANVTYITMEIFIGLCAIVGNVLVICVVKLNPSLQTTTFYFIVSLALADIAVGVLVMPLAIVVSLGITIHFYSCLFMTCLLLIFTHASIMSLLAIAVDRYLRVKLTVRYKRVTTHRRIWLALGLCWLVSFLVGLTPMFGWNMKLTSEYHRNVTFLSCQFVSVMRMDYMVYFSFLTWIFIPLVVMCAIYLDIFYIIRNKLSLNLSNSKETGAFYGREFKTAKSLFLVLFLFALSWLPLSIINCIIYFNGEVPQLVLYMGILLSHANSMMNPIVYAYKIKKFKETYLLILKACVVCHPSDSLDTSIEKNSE", "test": "Inhibition of adenosine A3 receptor cAMP signaling pathway (HTRF cAMP, CHO-K1/A3R cells)", "details": "Table 2; for IC50: CHO-K1/A3R cells, forskolin 10 μM, 2Cl-IB-MECA 5 nM, cAMP HTRF", "source_text": "as §1, §2\n2.3 Adenosine A3 receptor\nas §3, with “CHO-K1/A3R cells were” for “CHO-K1/A1R cells were”, “serum and 10 μg/ml puromycin. The cells” for “serum and 1 mg/ml G418. The cells”, “cells were resuspended in” for “cells were then resuspended in”, “forskolin and 2Cl-IB-MECA (4× concentration)” for “forskolin and N6-cyclopentyladenosine (4× concentration)”, “concentration of 2Cl-IB-MECA was 5” for “concentration of CPA was 10”, “2Cl-IB-MECA was 5 nM. Intracellular” for “CPA was 10 nM. Intracellular”"}, "[4]": {"biological_target": "adenosine A2b receptor (A2bR) (Homo sapiens (Human), UniProt P29275)", "sequence (P29275 whole entry)": "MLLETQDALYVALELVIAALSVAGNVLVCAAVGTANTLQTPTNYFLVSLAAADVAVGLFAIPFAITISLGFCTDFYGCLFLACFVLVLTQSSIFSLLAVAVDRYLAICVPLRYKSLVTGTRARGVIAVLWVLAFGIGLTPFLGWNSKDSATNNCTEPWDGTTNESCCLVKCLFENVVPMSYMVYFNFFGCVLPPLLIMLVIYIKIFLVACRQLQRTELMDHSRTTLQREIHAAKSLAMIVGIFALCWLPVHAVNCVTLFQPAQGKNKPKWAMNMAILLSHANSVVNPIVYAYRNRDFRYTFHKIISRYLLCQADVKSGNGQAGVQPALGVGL", "test": "Inhibition of adenosine A2b receptor cAMP signaling pathway (HTRF cAMP, CHO-K1/A2bR cells)", "details": "Table 3; for IC50: CHO-K1/A2bR cells, ethyl carbazole 1 μM, cAMP HTRF; for IC50 ratio (A2bR/A2aR): selectivity A2bR over A2aR", "source_text": "as §1, §2\n2.4 Adenosine A2b receptor (A2bR)\nCHO-K1/A2bR cells were cultured in DMEM/F12 medium containing 10% fetal bovine serum and 1 mg/ml G418. The cells were digested with the cell separation buffer during the experiment. The cells were resuspended in the balanced salt buffer containing 20 mM HEPES and 0.1% bovine serum albumin and counted, and the cell density was adjusted to 10^6 cells/ml. In the 384-well plate, each well was added with 5 μl of cell suspension, and 2.5 μl of test compound (4× concentration) formulated with the balanced salt buffer containing 20 mM HEPES, 0.1% bovine serum albumin, 54 μM rolipram and 2.7 U/ml adenosine deaminase, and the plate was incubated at room temperature for 30 minutes. Each well was then added with 2.5 μl of […] (4× concentration) (Torcis, 1691/10) formulated with the balanced salt buffer containing 20 mM HEPES, 0.1% bovine serum albumin, 54 μM rolipram and 2.7 U/ml adenosine deaminase, and the plate was incubated at room temperature for 30 minutes. The final concentrations of the compounds were: 100000, 10000, 1000, 100, 10, 1, 0.1 and 0 nM. The final concentration of […] was 1 μM. Intracellular cAMP concentration was detected with the cAMP dynamic 2 kit. cAMP-d2 and Anti-cAMP-Eu-Cryptate were diluted respectively with the cAMP lysis buffer at a ratio of 1:4. Each well was added with 5 μl of diluted cAMP-d2, followed by addition of 5 μl of diluted Anti-cAMP-Eu-Cryptate, and the plate was incubated at room temperature in the dark for 1 hour. The HTRF signal values were read by the PHERAstar multi-function microplate reader."}}, "data": [{"smiles": "Cc1cc(-c2c(-c3ccccc3F)nc(N)n3cnnc23)cc(CF)n1", "note": "[Example 57, 8-(2-(Fluoromethyl)-6-methylpyridin-4-yl)-7-(2-fluorophenyl)-[1,2,4]triazolo[4,3-c]pyrimidin-5-amine]", "values": [{"measurement": "IC50", "setting": "[1]; Table 1, ethyl carbazole 20 nM", "value": 2.59, "unit": "nM"}, {"measurement": "IC50", "setting": "[1]; Table 2, ethyl carbazole 20 nM", "value": 2.59, "unit": "nM"}, {"measurement": "IC50", "setting": "[1]; Table 3, ethyl carbazole 20 nM", "value": 2.59, "unit": "nM"}, {"measurement": "IC50", "setting": "[2]", "value": 302, "unit": "nM"}, {"measurement": "IC50 ratio (A1R/A2aR)", "setting": "[2]", "value": 117}, {"measurement": "IC50 ratio (A3R/A2aR)", "setting": "[3]", "value": ">10^3"}, {"measurement": "IC50", "setting": "[3]", "value": "> 10000", "unit": "nM"}, {"measurement": "IC50", "setting": "[4]", "value": 209, "unit": "nM"}, {"measurement": "IC50 ratio (A2bR/A2aR)", "setting": "[4]", "value": 81}]}, {"smiles": "Cc1cc(-c2c(-c3ccccc3)nc(N)n3cnnc23)cc(Cl)n1", "note": "[Example 4, 8-(2-Chloro-6-methylpyridin-4-yl)-7-phenyl-[1,2,4]triazolo[4,3-c]pyrimidin-5-amine]", "values": [{"measurement": "IC50", "setting": "[1]; Table 1, ethyl carbazole 20 nM", "value": 0.08, "unit": "nM"}, {"measurement": "IC50", "setting": "[1]; Table 2, ethyl carbazole 20 nM", "value": 0.08, "unit": "nM"}, {"measurement": "IC50", "setting": "[1]; Table 3, ethyl carbazole 20 nM", "value": 0.08, "unit": "nM"}, {"measurement": "IC50", "setting": "[2]", "value": 37, "unit": "nM"}, {"measurement": "IC50 ratio (A1R/A2aR)", "setting": "[2]", "value": 463}, {"measurement": "IC50 ratio (A3R/A2aR)", "setting": "[3]", "value": ">1.3 × 10^5"}, {"measurement": "IC50", "setting": "[3]", "value": "> 10000", "unit": "nM"}, {"measurement": "IC50", "setting": "[4]", "value": 82.6, "unit": "nM"}, {"measurement": "IC50 ratio (A2bR/A2aR)", "setting": "[4]", "value": 1032}]}, {"smiles": "Cc1cc(-c2c(-c3ccc(Cl)cc3F)nc(N)n3cnnc23)cc(C(F)F)n1", "note": "[Example 59, 7-(4-Chloro-2-fluorophenyl)-8-(2-(difluoromethyl)-6-methylpyridin-4-yl)-[1,2,4]triazolo[4,3-c]pyrimidin-5-amine]", "values": [{"measurement": "IC50", "setting": "[1]; Table 1, ethyl carbazole 20 nM", "value": 3.05, "unit": "nM"}, {"measurement": "IC50", "setting": "[1]; Table 2, ethyl carbazole 20 nM", "value": 3.05, "unit": "nM"}, {"measurement": "IC50", "setting": "[1]; Table 3, ethyl carbazole 20 nM", "value": 3.05, "unit": "nM"}, {"measurement": "IC50", "setting": "[2]", "value": 1010, "unit": "nM"}, {"measurement": "IC50 ratio (A1R/A2aR)", "setting": "[2]", "value": 330}, {"measurement": "IC50 ratio (A3R/A2aR)", "setting": "[3]", "value": ">10^3"}, {"measurement": "IC50", "setting": "[3]", "value": "> 10000", "unit": "nM"}, {"measurement": "IC50", "setting": "[4]", "value": 884, "unit": "nM"}, {"measurement": "IC50 ratio (A2bR/A2aR)", "setting": "[4]", "value": 290}]}, {"smiles": "Cc1cc(-c2c(-c3ccccc3F)nc(N)n3cnnc23)cc(C(F)F)n1", "note": "[Example 56, 8-(2-(Difluoromethyl)-6-methylpyridin-4-yl)-7-(2-fluorophenyl)-[1,2,4]triazolo[4,3-c]pyrimidin-5-amine]", "values": [{"measurement": "IC50", "setting": "[1]; Table 1, ethyl carbazole 20 nM", "value": 1.68, "unit": "nM"}, {"measurement": "IC50", "setting": "[1]; Table 2, ethyl carbazole 20 nM", "value": 1.68, "unit": "nM"}, {"measurement": "IC50", "setting": "[1]; Table 3, ethyl carbazole 20 nM", "value": 1.68, "unit": "nM"}, {"measurement": "IC50", "setting": "[2]", "value": 248, "unit": "nM"}, {"measurement": "IC50 ratio (A1R/A2aR)", "setting": "[2]", "value": 148}, {"measurement": "IC50 ratio (A3R/A2aR)", "setting": "[3]", "value": ">10^3"}, {"measurement": "IC50", "setting": "[3]", "value": "> 10000", "unit": "nM"}, {"measurement": "IC50", "setting": "[4]", "value": 112, "unit": "nM"}, {"measurement": "IC50 ratio (A2bR/A2aR)", "setting": "[4]", "value": 67}]}, {"smiles": "Cc1cc(-c2c(-c3ccccc3F)nc(N)n3cnnc23)cc(C)n1", "note": "[Example 19, 8-(2,6-Dimethylpyridin-4-yl)-7-(2-fluorophenyl)-[1,2,4]triazolo[4,3-c]pyrimidin-5-amine]", "values": [{"measurement": "IC50", "setting": "[1]; Table 1, ethyl carbazole 20 nM", "value": 0.96, "unit": "nM"}, {"measurement": "IC50", "setting": "[1]; Table 2, ethyl carbazole 20 nM", "value": 0.96, "unit": "nM"}, {"measurement": "IC50", "setting": "[1]; Table 3, ethyl carbazole 20 nM", "value": 0.96, "unit": "nM"}, {"measurement": "IC50", "setting": "[2]", "value": 173, "unit": "nM"}, {"measurement": "IC50 ratio (A1R/A2aR)", "setting": "[2]", "value": 180}, {"measurement": "IC50 ratio (A3R/A2aR)", "setting": "[3]", "value": ">10^4"}, {"measurement": "IC50", "setting": "[3]", "value": "> 10000", "unit": "nM"}, {"measurement": "IC50", "setting": "[4]", "value": 85.4, "unit": "nM"}, {"measurement": "IC50 ratio (A2bR/A2aR)", "setting": "[4]", "value": 89}]}]}
